“And” between values parts separate entries of the source, which are not always exact repeats. Equal values may be shown once. “Also recorded” adds a separate entry of the source. Read-outs that look alike come from different tables or passages of the source.
Columns and labels:
[1] = analgesic properties (test not described)
6 Hz (32 mA) model [2] = settings: cited from earlier work; for ED50: 6 Hz model, earlier work; for anticonvulsant activity in the 6 Hz model: mouse 6 Hz (32 mA), previously shown
rotorod test = test: Toxicity by the rotorod test; format: in vivo; settings: for TD50: rotorod, ip, probit analysis
Excerpt: All compounds (FIG. 1) were screened in three whole mouse models: the maximal electroshock model (MES), the scMET test (pentylenetetrazole, Metrazol), and the 6 Hz psychomotor seizure model of partial epilepsy (32 mA). Adult male CF No 1 albino mice (26-30 g) were used for the 6 Hz test and 18-25 g mice were used in the MES and scMet tests. The animals are housed, fed, and handled in a manner consistent with the recommendations in the National Council Publication, “Guide for the Care and Use of Laboratory Animals”. […] All compounds were administered ip in polyethylene glycol, 30%.
The 6 Hz test (also known as the minimal clonic seizure, or psychomotor test) involved delivering a corneal stimulus of 32 mA for 3 s. […] Seizures consist of a minimal clonic phase followed by stereotyped automatistic behaviors. Animals not showing such behaviors were considered protected. Toxicity was determined by the rotorod test. For this test, the animal is placed on a rotorod at 6 rpm following dosing. The animal is considered toxic if it falls off the rotorod three times in a 1 min period. The ED50, TD50 and confidence intervals were determined by probit analysis.

[3] = system: scMET model (pentylenetetrazole, Metrazol); test: scMET test (subcutaneous Metrazol); format: in vivo, mouse; settings: for responders at 30 mg/kg / responders at 100 mg/kg / responders at 300 mg/kg: Mus musculus, scMET, read-out: number of animals protected/number of animals tested; for responders at 30 mg/kg: 30 mg/kg ip; for responders at 100 mg/kg: 100 mg/kg ip; for responders at 300 mg/kg: 300 mg/kg ip
Excerpt: (§1) All compounds (FIG. 1) were screened in three whole mouse models: the maximal electroshock model (MES), the scMET test (pentylenetetrazole, Metrazol), and the 6 Hz psychomotor seizure model of partial epilepsy (32 mA). Adult male CF No 1 albino mice (26-30 g) were used for the 6 Hz test and 18-25 g mice were used in the MES and scMet tests. The animals are housed, fed, and handled in a manner consistent with the recommendations in the National Council Publication, “Guide for the Care and Use of Laboratory Animals”. The animal studies were performed by the NINDS Anticonvulsant Screening Program under IACUC number 09-12014. All compounds were administered ip in polyethylene glycol, 30%.
(§2) The MES model, which generates generalized tonic-clonic seizures, involved pretreating mice with experimental compound, and administering 60 Hz of alternating current (50 mA) for 2 s via corneal electrodes. Prior to current administration, the animal's corneas were treated topically with 1% tetracaine. Animals are considered protected if the hindlimb tonic extensor component is absent. The scMET test was done by pretreating mice with experimental compound and administering 85 mg/kg Metrazol into the loose folds of the skin in the midline of the neck. Eighty-five mg/kg Metrazol is the dose that causes seizures in 97% (CD97) of control animals.

[4] = system: maximal electroshock (MES) model; test: maximal electroshock (MES) model; format: in vivo, mouse; settings: for responders at 30 mg/kg / responders at 100 mg/kg / responders at 300 mg/kg: Mus musculus, MES; for responders at 30 mg/kg: 30 mg/kg ip; for responders at 30 mg/kg / responders at 300 mg/kg: read-out: number of animals protected/number of animals tested; for responders at 100 mg/kg: 100 mg/kg ip, read-out: number of animals protected/number of animals tested (converted); for responders at 300 mg/kg: 300 mg/kg ip
Excerpt: as §1, §2

6 Hz (32 mA) model [5] = test: 6 Hz (32 mA) psychomotor seizure model of partial epilepsy; format: in vivo, mouse; settings: for ED50 / Protective effects, number of animals protected/number of animals tested: 6 Hz (32 mA); for ED50: ip, probit analysis; for complete protection, animals: one or more time points from 0.25 or 1 h; for Protective effects, number of animals protected/number of animals tested: 100 mg/kg ip
Excerpt: as §1
The 6 Hz test (also known as the minimal clonic seizure, or psychomotor test) involved delivering a corneal stimulus of 32 mA for 3 s. This current elicits psychomotor seizures in 97% of untreated animals. Seizures consist of a minimal clonic phase followed by stereotyped automatistic behaviors. Animals not showing such behaviors were considered protected. Toxicity was determined by the rotorod test. For this test, the animal is placed on a rotorod at 6 rpm following dosing. The animal is considered toxic if it falls off the rotorod three times in a 1 min period. The ED50, TD50 and confidence intervals were determined by probit analysis.

[6] = system: scMET model (pentylenetetrazole, Metrazol); settings: mouse; previously demonstrated; cited from earlier work
[7] = system: maximal electroshock (MES) model; settings: mouse; previously demonstrated; cited from earlier work
seizures = test: anticonvulsant properties (model not stated); settings: in vivo

CC(C)c1cc(C(O)C(F)(F)F)cc(Br)c1O (stereo not drawn) [compound 10]
analgesic properties [1]: analgesic properties

CCC(C)c1cc(C(O)C(F)(F)F)cc(C(C)CC)c1O (stereo not drawn) [MB050]
ED50 (6 Hz (32 mA) model [2]): 73 mg/kg | anticonvulsant activity in the 6 Hz model (6 Hz (32 mA) model [2]): good anticonvulsant activity

CC(C)c1cc(C(O)C(F)(F)F)ccc1O (stereo not drawn) [RM125, 2-iso-Propyl-4-(2,2,2-trifluoro-1-hydroxy-ethyl)-phenol]
TD50 (rotorod test): 161.12 mg/kg | scMET protection, time points after dosing ([3]; 300 mg/kg dose): protection at the highest 300 mg/kg dose at 0.5 and 4 h | responders at 30 mg/kg ([3]; 0.5 h): 0% | responders at 30 mg/kg ([3]; 4 h): 0% | responders at 100 mg/kg ([3]; 0.5 h): 0% | responders at 100 mg/kg ([3]; 4 h): 0% | responders at 300 mg/kg ([3]; 0.5 h): 100% | responders at 300 mg/kg ([3]; 4 h): 100% | MES protection ([4]; 300 mg/kg dose): some protection | MES protection, time points after dosing ([4]; 300 mg/kg dose): protection at both 0.5 and 4 h | responders at 30 mg/kg ([4]; 0.5 h): 0% | responders at 30 mg/kg ([4]; 4 h): 0% | responders at 100 mg/kg ([4]; 0.25 h): 0% | responders at 100 mg/kg ([4]; 0.5 h): 0% | responders at 100 mg/kg ([4]; 1 h): 33.3% | responders at 100 mg/kg ([4]; 2 h): 33.3% | responders at 100 mg/kg ([4]; 4 h): 0% | responders at 100 mg/kg ([4]; 6 h): 0% | responders at 300 mg/kg ([4]; 0.5 h): 100% | responders at 300 mg/kg ([4]; 4 h): 100% | ED50 (6 Hz (32 mA) model [5]): 84.12 mg/kg | complete protection, animals (6 Hz (32 mA) model [5]; 6 Hz, 100 mg/kg): 4 of 4 | ED50 (6 Hz (32 mA) model [5]; Mus musculus, read-out: ED50): 84 mg/kg | antiseizure activity in the 6 Hz model (6 Hz (32 mA) model [5]; mouse, in vivo): relatively good antiseizure activity

CC(C)c1cc(C(O)C(F)(F)F)cc(C(C)C)c1O (stereo not drawn) [MB003]
protective effects in the scMET model [6]: little to no protective effects | ED50 (6 Hz (32 mA) model [2]): 38.6 mg/kg | anticonvulsant activity in the 6 Hz model (6 Hz (32 mA) model [2]): good anticonvulsant activity; also recorded: protective | protective effects in the MES model [7]: little to no protective effects

CC(C)c1cc(C(O)C(F)(F)F)cc(Br)c1O (stereo not drawn) [RM122, 2-Bromo-6-isopropyl-4-(2,2,2-trifluoro-1-hydroxy-ethyl)-phenol]
TD50 (rotorod test): 403 mg/kg and 403.12 mg/kg | responders at 30 mg/kg ([3]; 0.5 h): 0% | responders at 30 mg/kg ([3]; 4 h): 0% | responders at 100 mg/kg ([3]; 0.5 h): 0% | responders at 100 mg/kg ([3]; 4 h): 0% | responders at 300 mg/kg ([3]; 0.5 h): 0% | responders at 300 mg/kg ([3]; 4 h): 0% | responders at 30 mg/kg ([4]; 0.5 h): 0% | responders at 30 mg/kg ([4]; 4 h): 0% | responders at 100 mg/kg ([4]; 0.5 h): 0% | responders at 100 mg/kg ([4]; 4 h): 0% | responders at 300 mg/kg ([4]; 0.5 h): 0% | responders at 300 mg/kg ([4]; 4 h): 0% | MES protection ([4]; any dose (30-300 mg/kg ip)): no MES protection | ED50 (6 Hz (32 mA) model [5]): 112.45 mg/kg | complete protection, animals (6 Hz (32 mA) model [5]; 6 Hz, 100 mg/kg): 4 of 4 | ED50 (6 Hz (32 mA) model [5]; Mus musculus, read-out: ED50): 112 mg/kg

CC(C)c1nc(C(O)C(F)(F)F)ccc1O (stereo not drawn) [Compound 20, 2-isopropyl-6-(2,2,2-trifluoro-1-hydroxyethyl)pyridin-3-ol]
anticonvulsant properties (seizures): anticonvulsant properties

Cc1cc(C(O)C(F)(F)F)ccc1O (stereo not drawn) [RM170, 2-Methyl-4-(2,2,2-trifluoro-1-hydroxy-ethyl)-phenol]
Toxicity, animals/number of animals tested (rotorod test; dose 100 mg/kg ip, 0.25 h): 0/3 | Toxicity, animals/number of animals tested (rotorod test; dose 100 mg/kg ip, 0.5 h): 0/8 | Toxicity, animals/number of animals tested (rotorod test; dose 100 mg/kg ip, 1 h): 0/3 | Toxicity, animals/number of animals tested (rotorod test; dose 100 mg/kg ip, 2 h): 0/3 | Toxicity, animals/number of animals tested (rotorod test; dose 100 mg/kg ip, 4 h): 0/4 | Toxicity, animals/number of animals tested (rotorod test; dose 100 mg/kg ip, 6 h): 0/3 | Toxicity, animals/number of animals tested (rotorod test; dose 30 ip, 0.5 h): 0/4 | Toxicity, animals/number of animals tested (rotorod test; dose 30 ip, 4 h): 0/2 | Toxicity, animals/number of animals tested (rotorod test; dose 300 ip, 0.5 h): 0/4 | Toxicity, animals/number of animals tested (rotorod test; dose 300 ip, 4 h): 0/2 | evidence of toxicity (rotorod test; doses up to 300 mg/kg): Neither RM170 nor RM166 showed any evidence of toxicity | responders at 30 mg/kg ([3]; 0.5 h): 0% | responders at 30 mg/kg ([3]; 4 h): 0% | responders at 100 mg/kg ([3]; 0.5 h): 0% | responders at 100 mg/kg ([3]; 4 h): 0% | responders at 300 mg/kg ([3]; 0.5 h): 0% | responders at 300 mg/kg ([3]; 4 h): 0% | MES protection ([4]; 300 mg/kg dose): some protection | MES protection, time points after dosing ([4]; 300 mg/kg dose): protection at both 0.5 and 4 h | responders at 30 mg/kg ([4]; 0.5 h): 0% | responders at 100 mg/kg ([4]; 0.25 h): 0% | responders at 100 mg/kg ([4]; 0.5 h): 0% | responders at 100 mg/kg ([4]; 1 h): 0% | responders at 100 mg/kg ([4]; 2 h): 0% | responders at 100 mg/kg ([4]; 4 h): 0% | responders at 100 mg/kg ([4]; 6 h): 0% | responders at 300 mg/kg ([4]; 0.5 h): 100% | responders at 300 mg/kg ([4]; 4 h): 100% | Protective effects, number of animals protected/number of animals tested (6 Hz (32 mA) model [5]; 0.25 h): 0/4 | Protective effects, number of animals protected/number of animals tested (6 Hz (32 mA) model [5]; 0.5 h): 0/4 | Protective effects, number of animals protected/number of animals tested (6 Hz (32 mA) model [5]; 1 h): 2/4 | Protective effects, number of animals protected/number of animals tested (6 Hz (32 mA) model [5]; 2 h): 1/4 | Protective effects, number of animals protected/number of animals tested (6 Hz (32 mA) model [5]; 4 h): 1/4 | animals in which seizures were inhibited (6 Hz (32 mA) model [5]; 6 Hz, 100 mg/kg, any time point from 0.25 to 4 h): no more than 2 of 4

Cc1cc(C(O)C(F)(F)F)cc(C)c1O (stereo not drawn) [DMPF]
anticonvulsant activity in the 6 Hz model (6 Hz (32 mA) model [2]): lack of activity

Source: patent publication US9422248B2 (University of Iowa Research Foundation, priority 2012, dated 2016)
